The record followed here is patent US20040248887A1, “Inhibitors of cathepsin S” (IRM LLC, priority 2003, published 2004).

What is called Ki is a measure of affinity in units of concentration, obtained from inhibition or displacement.

This assay addresses Cathepsin S (Homo sapiens, UniProt P25774). Put plainly: Cathepsin S inhibition, fluorogenic peptide substrate kinetic assay. The class given is biochemical. Conditions: Table II; Cathepsin S inhibition constant, pH5.5; read-out: Ki Cat. S. The method, boiled down:
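Reactions were started with 50 μM (final) acetyl-His-Pro-Val-Lys-aminocarbamoylcoumarin, and hydrolysis was followed by fluorescence (ex 380/em 450 nm). Apparent inhibition constants from enzyme progress curves were converted to Ki for competitive inhibitors using substrate concentration and Km.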

Structures are written as SMILES.

Chain of Cathepsin S (P25774 115-331, species assumed): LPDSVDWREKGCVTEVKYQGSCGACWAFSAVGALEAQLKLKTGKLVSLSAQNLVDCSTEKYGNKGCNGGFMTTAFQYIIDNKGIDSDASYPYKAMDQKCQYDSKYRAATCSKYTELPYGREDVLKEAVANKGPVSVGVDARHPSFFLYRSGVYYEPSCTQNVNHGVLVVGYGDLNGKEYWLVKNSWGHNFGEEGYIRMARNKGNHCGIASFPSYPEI

For `C[C@@H](CNc1ccc(OC(F)(F)F)cc1)NC(=O)[C@H](CC1CCCCC1)NC(=O)c1nc(-c2ccc(F)cc2)no1` [Compound 109, 3-(4-Fluoro-phenyl)-[1,2,4]oxadiazole-5-carboxylic acid {2-cyclohexyl-1-(S)-[1-(S)-methyl-2-(4-trifluoromethoxy-phenylamino)-ethylcarbamoyl]-ethyl}-amide], the Ki is < 0.1 µM.

Regarding `C[C@@H](CN1CCc2cc(F)ccc21)NC(=O)[C@H](CC1CCCCC1)NS(=O)(=O)c1cccc(Cl)c1` [Compound 259, (S,S)-2-(3-Chloro-benzenesulfonylamino)-3-cyclohexyl-N-[2-(5-fluoro-2,3-dihydro-indol-1-yl)-1-methyl-ethyl]-propionamide], the Ki was < 0.1 µM.

On to `COc1ccc(NCCNC(=O)[C@H]2CCCC[C@H]2NC(=O)c2cccc(C)c2)cc1` (relative stereo) [Compound 1, N-{cis-2-[2-(4-Methoxy-phenylamino)-ethylcarbamoyl]-cyclohexyl}-3-methyl-benzamide], for which the Ki was < 10 µM.

Take `CC(=O)Nc1nc(C)c(S(=O)(=O)N[C@@H](CC2CCCCC2)C(=O)NCCN2CCc3cc(F)ccc32)s1` [Compound 257, (S)-2-(2-Acetylamino-4-methyl-thiazole-5-sulfonylamino)-3-cyclohexyl-N-[2-(5-fluoro-2,3-dihydro-indol-1-yl)-ethyl]-propionamide]: the Ki is < 0.1 µM.

Turning to `Cc1cccc(C(=O)N[C@@H](Cc2ccccc2)C(=O)NC(C)(C)CN2CCc3cc(F)ccc32)c1` [Compound 28, N-{(1S)-[2-(5-Fluoro-2,3-dihydro-indol-1-yl)-1,1-dimethyl-ethylcarbamoyl]-2-phenyl-ethyl}-3-methyl-benzamide], the Ki was < 10 µM.

Take `COc1ccc(NC[C@@H](C)NC(=O)[C@H](CCC2CCCCC2)NC(=O)c2cc3ccccc3[nH]2)cc1` [Compound 25, 1H-Indole-2-carboxylic acid {3-cyclohexyl-(1S)-[2-(4-methoxy-phenylamino)-(1R)-methyl-ethylcarbamoyl]-propyl}-amide]: the Ki was < 10 µM.

On to `C[C@@H](CNc1ccc(OC(F)(F)F)cc1)NC(=O)[C@H](CC1CCCCC1)NS(=O)(=O)c1cccnc1` [Compound 183, (S,S)-3-Cyclohexyl-N-[1-methyl-2-(4-trifluoromethoxy-phenylamino)-ethyl]-2-(pyridine-3-sulfonylamino)-propionamide], for which the Ki was < 0.1 µM.

`C[C@@H](CNc1ccc(SC(F)(F)F)cc1)NC(=O)[C@H](CC1CCCCC1)NC(=O)c1ccc(-c2cccc(F)c2)o1` [Compound 119, 5-(3-Fluoro-phenyl)-furan-2-carboxylic acid {2-cyclohexyl-1-(S)-[1-(S)-methyl-2-(4-trifluoromethylsulfanyl-phenylamino)-ethylcarbamoyl]-ethyl}-amide]: the Ki was < 0.1 µM.

As to `C[C@@H](CN1CC(C)(C)c2cc(F)ccc21)NC(=O)[C@H](CC1CCCCC1)NC(=O)C1CCOCC1` [Compound 173, Tetrahydropyran-4-carboxylic acid {2-cyclohexyl-1-(S)-[2-(5-fluoro-3,3-dimethyl-2,3-dihydro-indol-1-yl)-1-(S)-methyl-ethylcarbamoyl]-ethyl}-amide], the Ki is < 0.1 µM.

For `O=C(N[C@@H](CC1CCCCC1)C(=O)N[C@@H](COCc1ccccc1)CN1CCc2cc(F)ccc21)c1ccc(-c2cccc(C(F)(F)F)c2)o1` [Compound 152, 5-(3-Trifluoromethyl-phenyl)-furan-2-carboxylic acid {1-(S)-[1-(R)-benzyloxymethyl-2-(5-fluoro-2,3-dihydro-indol-1-yl)-ethylcarbamoyl]-2-cyclohexyl-ethyl}-amide], the Ki is < 0.1 µM.

`CC(C(=O)N[C@@H](CC1CCCCC1)C(=O)NCCN1CCc2cc(F)ccc21)c1ccc(Cl)cc1` (stereo partly drawn) [Compound 64, 2-(4-Chloro-phenyl)-N-{2-cyclohexyl-1-(S)-[2-(5-fluoro-2,3-dihydro-indol-1-yl)-ethylcarbamoyl]-ethyl}-propionamide]: the Ki was < 0.1 µM.

Consider `COc1cccc(C(=O)N[C@@H](CCC2CCCCC2)C(=O)NCCN2CCc3cc(OCc4ccccc4)ccc32)c1` [Compound 19, (S)-N-{3-Cyclohexyl-1-[2-(5-benzyloxy-2,3-dihydro-indol-1-yl)-ethylcarbamoyl]-propyl}-3-methoxy-benzamide], for which the Ki is < 10 µM.

Take `O=C(NCCN1CCc2cc(F)ccc21)[C@H](CC1CCCCC1)NS(=O)(=O)c1cccc2ccccc12` [Compound 228, (S)-3-Cyclohexyl-N-[2-(5-fluoro-2,3-dihydro-indol-1-yl)-ethyl]-2-(naphthalene-1-sulfonylamino)-propionamide]: the Ki was < 1 µM.

In the case of `O=C(NCCN1CCc2cc(F)ccc21)[C@H](CC1CCCCC1)NS(=O)(=O)c1ccc(-c2cnco2)cc1` [Compound 246, (S)-3-Cyclohexyl-N-[2-(5-fluoro-2,3-dihydro-indol-1-yl)-ethyl]-2-(4-oxazol-5-yl-benzenesulfonylamino)-propionamide], the Ki is < 0.1 µM.

Turning to `Cc1cccc(S(=O)(=O)N[C@@H](CC(C)(C)C)C(=O)N[C@@H](CC(=O)O)CN2CCc3cc(F)ccc32)c1` [Compound 262, (S,S)-3-[4,4-Dimethyl-2-(toluene-3-sulfonylamino)-pentanoylamino]-4-(5-fluoro-2,3-dihydro-indol-1-yl)-butyric acid], the Ki is < 0.1 µM.

`CS(=O)(=O)N1CCC(Oc2ccc(C(=O)N[C@@H](CC3CCCCC3)C(=O)NCCN3CCc4cc(F)ccc43)cc2)CC1` [Compound 68, N-(S)-{2-cyclohexyl-1-[2-(5-fluoro-2,3-dihydro-indol-1-yl)-ethylcarbamoyl]-ethyl}-4-(1-methanesulfonyl-piperidin-4-yloxy)-benzamide]: the Ki is < 1 µM.

Take `C[C@@H](CNc1cccc(Cl)c1F)NC(=O)[C@H](CC1CCCCC1)NC(=O)c1ccc(-c2cccc(F)c2)o1` [Compound 96, 5-(3-Fluoro-phenyl)-furan-2-carboxylic acid {1-(S)-[2-(3-chloro-2-fluoro-phenylamino)-1-(S)-methyl-ethylcarbamoyl]-2-cyclohexyl-ethyl}-amide]: the Ki was < 1 µM.

As to `COc1cc(COC[C@@H](CN2CCc3cc(F)ccc32)NC(=O)[C@H](CCC2CCCCC2)NC(=O)c2cccc(OC)c2)cc(OC)c1` [Compound 170, N-{3-Cyclohexyl-1-(S)-[2-(3,5-dimethoxy-benzyloxy)-1-(R)-(5-fluoro-2,3-dihydro-indol-1-ylmethyl)-ethylcarbamoyl]-propyl}-3-methoxy-benzamide], the Ki is < 0.1 µM.

Regarding `C[C@@H](CNc1ccc(OC(F)(F)F)cc1)NC(=O)[C@H](CC1CCCCC1)NC(=O)O[C@H]1CCOC1` [Compound 189, {2-Cyclohexyl-1-(S)-[1-(S)-methyl-2-(4-trifluoromethoxy-phenylamino)-ethylcarbamoyl]-ethyl}-carbamic acid tetrahydrofuran-3-(S)-yl ester], the Ki was < 0.1 µM.

Take `Cc1cccc(S(=O)(=O)N[C@@H](CC(C)(C)C)C(=O)N[C@@H](C)CN2CCc3cc(F)ccc32)c1` [Compound 265, (S,S)-4,4-Dimethyl-2-(toluene-3-sulfonylamino)-pentanoic acid [2-(5-fluoro-2,3-dihydro-indol-1-yl)-1-methyl-ethyl]-amide]: the Ki was < 0.1 µM.

For the compound `Cc1cccc(S(=O)(=O)N[C@@H](CC(C)(C)C)C(=O)N[C@@H](CC(=O)OC(C)(C)C)CN2CCc3cc(F)ccc32)c1` [Compound 252, (S,S)-3-[4,4-Dimethyl-2-(toluene-3-sulfonylamino)-pentanoylamino]-4-(5-fluoro-2,3-dihydro-indol-1-yl)-butyric acid tert-butyl ester], the Ki was < 1 µM.

With `C[C@@H](CNc1cc(F)ccc1Cl)NC(=O)[C@H](CC1CCCCC1)NC(=O)c1ccc(-c2cccc(F)c2)o1` [Compound 112, 5-(3-Fluoro-phenyl)-furan-2-carboxylic acid {1-(S)-[2-(2-chloro-5-fluoro-phenylamino)-1-(S)-methyl-ethylcarbamoyl]-2-cyclohexyl-ethyl}-amide], the Ki was < 1 µM.

Regarding `O=C(NCCN1CCc2cc(F)ccc21)[C@H](CC1CCCCC1)NS(=O)(=O)c1ccc(Cl)s1` [Compound 227, (S)-2-(5-Chloro-thiophene-2-sulfonylamino)-3-cyclohexyl-N-[2-(5-fluoro-2,3-dihydro-indol-1-yl)-ethyl]-propionamide], the Ki is < 0.1 µM.

Consider `C[C@@H](CNc1ccccc1Cl)NC(=O)[C@H](CC1CCCCC1)NC(=O)c1ccc(-c2cccc(F)c2)o1` [Compound 113, 5-(3-Fluoro-phenyl)-furan-2-carboxylic acid {1-(S)-[2-(2-chloro-phenylamino)-1-(S)-methyl-ethylcarbamoyl]-2-cyclohexyl-ethyl}-amide], for which the Ki was < 0.1 µM.

Take `O=C(N[C@@H](Cc1ccccc1)C(=O)NCCN1CCc2cc(F)ccc21)c1ccc(-c2cccc(C(F)(F)F)c2)o1` [Compound 206, N-((S)-1-(2-(5-fluoroindolin-1-yl)ethylcarbamoyl)-2-phenylethyl)-5-(3-(trifluoromethyl)phenyl)furan-2-carboxamide]: the Ki is < 1 µM.

In the case of `COc1ccc(N[C@H]2CCCC[C@H]2NC(=O)[C@H](CC(C)C)NC(=O)c2cccc(C)c2)cc1` (mixture of isomers) [Compound 33, N-{1-(S)-[cis-2-(4-Methoxy-phenylamino)-cyclohexylcarbamoyl]-3-methyl-butyl}-3-methyl-benzamide], the Ki was < 1 µM.

In the case of `C[C@@H](CN1CCc2cc(F)ccc21)NC(=O)[C@H](CC(C)(C)C)NC(=O)C1CC1` [Compound 177, Cyclopropanecarboxylic acid {1-(S)-[2-(5-fluoro-2,3-dihydro-indol-1-yl)-1-(S)-methyl-ethylcarbamoyl]-3,3-dimethyl-butyl}-amide], the Ki is < 0.1 µM.

In the case of `COc1ccc(N[C@@H]2CCCC[C@H]2NC(=O)[C@H](CC(C)C)NC(=O)c2cccc(C)c2)cc1` (mixture of isomers) [Compound 34, N-{1-(S)-[trans-2-(4-Methoxy-phenylamino)-cyclohexylcarbamoyl]-3-methyl-butyl}-3-methyl-benzamide], the Ki was < 1 µM.
